In patent US20230096766A1, “AMINO ACID HAVING FUNCTIONAL GROUP CAPABLE OF INTERMOLECULAR HYDROGEN BONDING, PEPTIDE COMPOUND CONTAINING SAME AND METHOD FOR PRODUCTION THEREOF” (Chugai Seiyaku Kabushiki Kaisha, priority 2018, published 2023):
*1 amine or outer side, *2 acyl side, *3 side chain or, on linkers, in order; H or OH if unused. Where a SMILES comes first, the peptide text is derived from it. Bridges are numbered along the chain shown (N, C = ends). [ ]: non-standard residue; d: D form. The star is where a group is joined. ξ: configuration not given here. X14 = CC(C)[C@H](CC(=O)[C@H](Cc1ccccc1)N(C)[*:1])C(=O)[*:2]; X17 = CC(C)C[C@@H](C(=O)[*:2])C(C)C(=O)CCCN(C)[*:1]; Glu(NHSO2Me) = CS(=O)(=O)NC(=O)CC[C@H](N)C(=O)O; X11 = CNC(=O)c1ccc(CCN(CC(=O)[*:2])[*:1])cc1OC; NMePhe(3-Cl) = CN[C@@H](Cc1cccc(Cl)c1)C(=O)O; ξGln(SO2Me) = CS(=O)(=O)NC(=O)CCC(N)C(=O)O; NMehPhe = CN[C@@H](CCc1ccccc1)C(=O)O; X7 = O=C(C[C@H](COCCO)N[*:1])[*:2]; X6 = O=C([C@H](CCCCO)N[*:1])[*:2]; NMeF = CN[C@@H](Cc1ccccc1)C(=O)O; CH2CONHtBu = CC(C)(C)NC(=O)C*; NMeL = CN[C@@H](CC(C)C)C(=O)O; NMeV = CN[C@H](C(=O)O)C(C)C; NMeAbu = CC[C@H](NC)C(=O)O; NMeA = CN[C@@H](C)C(=O)O; Piperidide = C1CCN(*)CC1; dAbu = CC[C@@H](N)C(=O)O; NBuGly = CCCCNCC(=O)O; Isopentyl = CC(C)CC*; NPrGly = CCCNCC(=O)O; Propyl(3-OH) = OCCC*; Sar = CNCC(=O)O; tBu = CC(C)(C)*

assay: in vitro; settings: human, Caco-2, Caco-2

Structure (SMILES) | Papp [×10⁻⁶ cm/s]
CC(C)C[C@@H]1NC(=O)[C@H](CC(C)C)C(C)C(=O)CCCN(C)C(=O)C[C@@H](C(=O)N2CCCCC2)NC(=O)[C@H](CC(C)C)N(C)C(=O)[C@H](CC(C)C)N(C)C(=O)[C@H](CC(C)C)NC(=O)[C@H](CC(C)C)N(C)C(=O)C(CCC(=O)NS(C)(=O)=O)NC(=O)[C@H](Cc2ccccc2)N(C)C(=O)[C@H](Cc2ccccc2)N(C)C1=O (stereo partly drawn) [pd68] ([X17]L[NMeF][NMeF][ξGln(SO2Me)][NMeL]L[NMeL][NMeL]D-Piperidide; lactam N-10) | 0.1
CCCCN1CC(=O)N(C)[C@@H](Cc2cccc(Cl)c2)C(=O)N[C@@H](CCC(=O)NS(C)(=O)=O)C(=O)N(C)[C@@H](CC(C)C)C(=O)N[C@@H]([C@@H](C)O)C(=O)N(CCCC)CC(=O)N(C)[C@@H](Cc2ccccc2)C(=O)N(C)[C@@H](CC(C)C)C(=O)N[C@@H](CC(C)C)C(=O)N(C)[C@@H](CC(C)C)C(=O)N[C@H](C(=O)N2CCCCC2)CC1=O [pd66] ([NBuGly][NMePhe(3-Cl)][Glu(NHSO2Me)][NMeL]T[NBuGly][NMeF][NMeL]L[NMeL]D-Piperidide; lactam N-11) | 0.09

same assay, conditions: human, Caco-2, Caco-2 (cm/sec)

Structure (SMILES) | Papp [×10⁻⁶ cm/s]
CC[C@H]1C(=O)N[C@@H](CC(C)C)C(=O)N(C)[C@@H](CC(C)C)C(=O)N(C)[C@@H](Cc2ccccc2)C(=O)N[C@@H](CCCCO)C(=O)N(C)[C@@H](CCc2ccccc2)C(=O)N(C)[C@@H](CC(C)C)C(=O)N[C@@H]([C@@H](C)O)C(=O)N(C)CC(=O)N(C)[C@@H](CC(C)C)C(=O)N[C@H](C(=O)N2CCCCC2)CC(=O)N1C [Compound B06] ([NMeAbu]L[NMeL][NMeF][X6][NMehPhe][NMeL]T[Sar][NMeL]D-Piperidide; lactam N-11) | 0.39
CCCN1CC(=O)N(C)[C@@H](CC(C)C)C(=O)N[C@@H](COCCC(C)C)C(=O)N(C)[C@@H](Cc2ccccc2)C(=O)N(C)[C@@H](CC(C)C)C(=O)N[C@H](C(=O)N2CCCCC2)CC(=O)N[C@H](CC)C(=O)N(C)[C@@H](CCc2ccccc2)C(=O)N[C@@H](CCCCO)C(=O)N(C)[C@@H](CC(C)C)C(=O)N[C@@H]([C@@H](C)O)C1=O [Compound B01] ([dAbu][NMehPhe][X6][NMeL]T[NPrGly][NMeL]S(Isopentyl)[NMeF][NMeL]D-Piperidide; lactam N-11) | < 0.11
CCCCN1CC(=O)N(C)[C@@H](Cc2ccccc2)C(=O)N[C@@H](COCCO)CC(=O)N(C)[C@@H](CC(C)C)C(=O)N[C@@H]([C@@H](C)O)C(=O)N(CCC)CC(=O)N(C)[C@@H](Cc2ccccc2)C(=O)N(C)[C@@H](CC(C)C)C(=O)N[C@@H](CC(C)C)C(=O)N(C)[C@@H](CC(C)C)C(=O)N[C@H](C(=O)N2CCCCC2)CC1=O [AP25] ([NBuGly][NMeF][X7][NMeL]T[NPrGly][NMeF][NMeL]L[NMeL]D-Piperidide; lactam N-11) | 0.62
CCCCN1CC(=O)N(C)[C@@H](Cc2ccccc2)C(=O)N[C@@H](COCC(=O)NC(C)(C)C)C(=O)N(C)[C@@H](CC(C)C)C(=O)N[C@@H]([C@@H](C)O)C(=O)N(CCC)CC(=O)N(C)[C@@H](Cc2ccccc2)C(=O)N(C)[C@@H](CC(C)C)C(=O)N[C@@H](CC(C)C)C(=O)N(C)[C@@H](C)C(=O)N[C@H](C(=O)N2CCCCC2)CC1=O [AP17] ([NBuGly][NMeF]S(CH2CONHtBu)[NMeL]T[NPrGly][NMeF][NMeL]L[NMeA]D-Piperidide; lactam N-11) | 0.72
CCCCN1CC(=O)N(C)[C@@H](CC(C)C)C(=O)N[C@H](C(=O)N2CCCCC2)CC(=O)N(C)[C@@H](C(C)C)C(=O)N[C@@H](COCCCO)C(=O)N(C)[C@@H](CC(C)C)C(=O)N(C)[C@@H](Cc2ccccc2)C(=O)C[C@@H](C(C)C)C(=O)N(C)[C@@H](Cc2ccccc2)C(=O)N(C)[C@@H](CC(C)C)C(=O)N[C@@H]([C@@H](C)O)C1=O [AP93] ([NMeV]S(Propyl(3-OH))[NMeL][X14][NMeF][NMeL]T[NBuGly][NMeL]D-Piperidide; lactam N-10) | 1.1
CCCCN1CC(=O)N(C)[C@@H](CC(C)C)C(=O)N[C@@H]([C@@H](C)CC)C(=O)N(C)[C@@H](Cc2ccccc2)C(=O)N[C@@H]([C@@H](C)O)C(=O)N(CCCC)CC(=O)N(C)[C@@H](CC(C)C)C(=O)N(C)[C@@H](Cc2ccccc2)C(=O)N[C@@H](COCC(=O)NC(C)(C)C)C(=O)N(C)[C@@H](C)C(=O)N[C@H](C(=O)N2CCCCC2)CC1=O [AP19] ([NBuGly][NMeL]I[NMeF]T[NBuGly][NMeL][NMeF]S(CH2CONHtBu)[NMeA]D-Piperidide; lactam N-11) | 0.88
CC[C@H]1C(=O)N[C@@H]([C@@H](C)O)C(=O)N(CCc2ccc(C(=O)NC)c(OC)c2)CC(=O)N(C)[C@@H](CC(C)C)C(=O)N[C@@H](COC(C)(C)C)C(=O)N(C)[C@@H](CC(C)C)C(=O)N(C)[C@@H](CC(C)C)C(=O)N[C@H](C(=O)N2CCCCC2)CC(=O)N[C@H](C)C(=O)N(C)[C@@H](Cc2ccccc2)C(=O)N[C@@H](CC(C)C)C(=O)N1C [AP216] ([dA][NMeF]L[NMeAbu]T[X11][NMeL]S(tBu)[NMeL][NMeL]D-Piperidide; lactam N-11) | 0.99
